Assay results reported in PubChem BioAssay (NCI).
“And” between values parts separate entries of the source, which are not always exact repeats. Identical values can stand only once.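 In this assay, cells in 96-well plates receive the compound at five concentrations for 48 hours. Endpoints are linearly interpolated between the surrounding concentrations. Here, GI50 denotes the concentration required for 50% inhibition of growth. The concentration for full growth arrest is given as TGI.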

What was measured:
Assay in all cases: NCI-60 cell line screen, 48 h
A498 renal = tested on: A498 renal
DU-145 prostate = tested on: DU-145 prostate
SK-MEL-28 melanoma = tested on: SK-MEL-28 melanoma
SN12C renal = tested on: SN12C renal
SNB-19 CNS = tested on: SNB-19 CNS
MCF7 breast = tested on: MCF7 breast
NCI-H226 lung = tested on: NCI-H226 lung
RXF 393 renal = tested on: RXF 393 renal
ACHN renal = tested on: ACHN renal
SK-MEL-2 melanoma = tested on: SK-MEL-2 melanoma

| SMILES | GI50 (A498 renal) [µM] | TGI (A498 renal) [µM] | GI50 (DU-145 prostate) [µM] | TGI (DU-145 prostate) [µM] | GI50 (SK-MEL-28 melanoma) [µM] | TGI (SK-MEL-28 melanoma) [µM] | GI50 (SN12C renal) [µM] | TGI (SN12C renal) [µM] | GI50 (SNB-19 CNS) [µM] | TGI (SNB-19 CNS) [µM] | GI50 (MCF7 breast) [µM] | GI50 (NCI-H226 lung) [µM] | TGI (NCI-H226 lung) [µM] | GI50 (RXF 393 renal) [µM] | TGI (RXF 393 renal) [µM] | GI50 (ACHN renal) [µM] | TGI (ACHN renal) | GI50 (SK-MEL-2 melanoma) [µM] | TGI (SK-MEL-2 melanoma) [µM] | TGI (MCF7 breast) [µM] |
| --- | --- | --- | --- | --- | --- | --- | --- | --- | --- | --- | --- | --- | --- | --- | --- | --- | --- | --- | --- | --- |
| CCCNC(=S)N/N=C(\C)c1ccccn1 | 0.435 | 4.83 | 1.1 | > 42.9 | 1.98 | > 100 | 0.268 | > 100 | 1.81 | > 100 | < 0.01 | 0.291 | 4.79 | 0.847 | 6.55 | 0.0394 | > 100 µM | 3.58 | > 100 | – |
| COc1ccc(S(=O)(=O)N(Cc2ccc3c(n2)C=CC(C)(C)O3)C2CCC2)cc1OC | < 0.01 | 0.0431 | < 0.01 | 3.45 | < 0.01 | 0.461 | < 0.01 | 0.161 | – | – | 0.0169 | 0.0101 | 3.75 | < 0.01 | 0.222 | < 0.01 | 0.0734 µM | – | – | > 38.2 |
| COC(=O)[C@]12CCC(C)(C)C[C@H]1C1=CC[C@@H]3[C@@]4(C)C/C(=C/c5cccnc5)C(=O)C(C)(C)[C@@H]4CC[C@@]3(C)[C@]1(C)CC2 | 11.6 | 26.4 | 8.86 | > 100 | 6.89 | 20 | 4.86 | 23.4 | 15.1 | 77.4 | 3 | 3.97 | 17.9 | 4.25 | 17.5 | 8.05 | 24.5 µM | 11.6 | 32.1 | 14.7 |
| O=C(CCCSc1nc(-c2ccc(Cl)cc2)cc(-c2ccc(Cl)cc2)n1)NO | 1.41 | 4.26 | 0.665 | 8.94 | 3.15 | 17 | 0.513 | 7.22 | 1.92 | 13.2 | 1.23 | 2.17 | 11.6 | 0.347 | 1.86 | 0.387 | 10.4 µM | 4.02 | 20.4 | 12.4 |
| COc1cccc(NCc2nnc(Nc3ccc(Cl)cc3)c3ccccc23)c1 | 1.27 | 4.42 | 2.4 | 6.52 | 2.62 | 6.17 | 2.52 | 10.7 | 3.5 | 13 | 0.938 | 0.956 | 6.82 | 2.16 | 6.11 | 1.56 | 24.4 µM | 0.708 | 3.98 | 6.4 |
| CC[C@H](C)[C@H](NC(=O)[C@H]1CCCCN1C)C(=O)N(C)[C@H](CCc1nc(C(=O)N[C@@H](Cc2ccccc2)C[C@H](C)C(=O)OC)cs1)C(C)C | 0.14 | 2.75 | 0.351 | > 25 | 2.06 | > 25 | 0.773 | > 25 | 0.151 | > 25 | 0.0648 | 1.07 | > 12.4 | 0.308 | > 25 | 1.75 | > 25 µM | 0.104 | 15.9 | > 25 |
| CC(=O)[O][Hg][c]1c(C)c(C)c(C)c(C)c1C | 2.68 | 5.4 | 8.79 | 22.8 | 1.26 | 2.63 | 1.53 | 2.97 | 1.48 | 2.89 | 0.843 | 3.65 | 10 | 0.712 | 1.93 | 10 | 23.1 µM | 1.41 | 3.37 | 2.13 |
| COc1cc(Cn2c(-c3ccccc3)cc3c2-c2oncc2CC3)cc(OC)c1OC | 0.271 | 2.06 | 1.73 | > 100 | 1.14 | 45.9 | 5.84 | > 100 | 1.93 | > 100 | 0.443 | 3.76 | > 100 | 1.36 | 50.5 | 0.961 | > 100 µM | 18.6 | > 100 | 22.3 |
| O=C(O)C(Sc1ccc(Cl)cc1)Sc1ccc(Cl)cc1 | – | 95.5 | – | > 100 | – | > 100 | – | > 100 | – | > 100 | – | – | > 100 | – | > 100 | – | > 100 µM | – | 69.1 | > 100 |
| CNC1C(=O)C(C)C(O)(C(CC(C)C(O)/C=C/C=C/CNC(=O)C(C)(C)C(O)\C(C)=C/C=C\C=C\Cc2cnc(C)o2)OC)C12C(=O)OC2COC (stereo not drawn) (tested in a mixture with another compound) | – | > 79.3 | – | > 100 | – | > 100 | – | > 82.7 | – | > 85.9 | – | – | 4.92 | – | 92.3 | – | > 43.2 µM | – | > 71.7 | > 84.9 |
| COc1ccc(-c2cc3c(nn2)-c2ccccc2C3=O)cc1 | > 100 | > 100 | > 100 | > 100 | > 100 | > 100 | > 100 | > 100 | > 100 | > 100 | 36.1 | > 100 | > 100 | > 100 | > 100 | > 100 | > 100 µM | – | > 10 | > 100 |
| NC(N)=NC(N)=Nc1cc2ccccc2c2ccccc12 | 1.39 | 10.1 | 11.9 | 25 | 13.2 | 26.2 | 5.3 | 19.9 | 7.69 | 21.6 | 3.7 | 10.5 | 25.5 | 10.6 | 24.1 | 5.07 | 17.3 µM | 13.6 | 30.5 | 18.8 |
| COc1ccc(C2CC(=O)c3c(O)c(OC)c(OC)c(OC)c3O2)c(O)c1 (stereo not drawn) | 0.126 | 0.984 | 0.25 | 15.9 | 10.5 | 25.6 | 1.23 | 70.4 | 0.384 | > 100 | 0.0462 | 4.49 | 24.7 | 0.243 | 25.5 | 1.2 | 58.2 µM | 0.0809 | 23.4 | 15.7 |
| COc1ccc(C2CC(=O)c3c(OC)cc(OC)cc3O2)cc1 (stereo not drawn) | > 100 | > 100 | > 100 | > 100 | > 100 | > 100 | > 100 | > 100 | > 100 | > 100 | > 100 | > 100 | > 100 | > 100 | > 100 | > 100 | > 100 µM | > 100 | > 100 | > 100 |
| COc1ccc(/C(=N/Nc2ccc([N+](=O)[O-])cc2)Sc2cc(Cl)c(C)cc2S(N)(=O)=O)cc1 | 0.107 | 2.68 | 3.8 | 9.77 | 6.57 | 16.6 | 2.2 | 4.29 | 7.06 | 20.3 | 4.84 | 3.52 | 9.63 | 4.3 | 11.5 | 6.34 | 17.5 µM | 12.3 | 34 | 15.6 |
| CCCCNC(=O)NS(=O)(=O)c1ccc(N2N=C(c3ccc(C)cc3C)CC2c2ccc(N(C)C)cc2)cc1 (stereo not drawn) | 3.9 | 25.9 | 5.75 | 81.1 | 2.56 | 7.96 | 3.07 | 89.5 | 4.59 | > 100 | 2.63 | 4.54 | 21.8 | 4.06 | 15.7 | 3.93 | > 100 µM | 3.13 | 8.46 | > 100 |
| CCCCCCCCCCC(O)C1CCC(C2CCC(C(O)CCCCC(O)CCCCCC(O)CC3=CC(C)OC3=O)O2)O1 (stereo not drawn) | 5.27 | > 25 | > 25 | > 25 | 4.28 | > 25 | > 25 | > 25 | 1.41 | > 25 | 23.5 | > 25 | > 25 | – | > 25 | 1.59 | 7.79 µM and > 25 µM | 3.62 | > 25 | > 25 |
| Cc1cc(C)cc(Nc2cc(C)nc3nc(C(F)(F)F)nn23)c1 | 29 | > 100 | > 100 | > 100 | > 100 | > 100 | > 100 | > 100 | > 100 | > 100 | > 100 | > 100 | > 100 | 24.3 | > 100 | 58.7 | > 100 µM | > 100 | > 100 | > 100 |
| CCC1(O)C(=O)OCc2c1cc1n(c2=O)Cc2cc3c(N)cccc3nc2-1 (stereo not drawn) | – | 1.39 | – | 0.25 | – | 9.19 | – | 0.595 | – | 26.1 | – | – | 0.0597 | – | 0.348 | – | 0.157 µM | – | 3.43 | > 39.7 |
| COc1cc2c3c(n(CCCBr)c(=O)c2cc1OC)-c1ccc(NC(C)=O)cc1C3=O | 2.69 | 8.47 | 4.65 | > 100 | 40.5 | > 100 | 13.9 | > 100 | 3.19 | > 100 | 1.82 | 5.17 | 57.3 | 13.3 | 38.2 | 3.07 | > 100 µM | 41.4 | > 100 | > 100 |
| CC(C)CC(N)C(=O)O (stereo not drawn) | – | > 100 | – | > 100 | – | > 100 | – | > 100 | – | > 100 | – | – | > 100 | – | > 100 | – | > 100 µM | – | > 100 | > 100 |
| CN1C(NC(=O)c2ccc(Cl)nc2)=NS(=O)(=O)c2cc(Cl)ccc21 | > 100 | > 100 | > 100 | > 100 | > 100 | > 100 | > 100 | > 100 | > 100 | > 100 | > 100 | > 100 | > 100 | > 100 | > 100 | > 100 | > 100 µM | > 100 | > 100 | > 100 |
| O=C(O)c1cc(N=Nc2ccc([As](=O)(O)O)cc2)ccc1O | – | > 100 | – | > 100 | – | > 100 | – | > 100 | – | > 100 | – | – | > 100 | – | > 100 | – | > 100 µM | – | > 100 | > 100 |
| COc1cc2c(/C=C3/C(=O)Nc4cccc(Cl)c43)c(Cl)n(Cc3ccccc3)c2cc1C | 0.528 | 9.03 | 11.2 | > 100 | 4.98 | 43.7 | 6.18 | > 35 | 9.07 | > 100 | 3.88 | 1.78 | 11.1 | 5.05 | > 29 | 3.58 | 33.3 µM | 11 | 68.2 | > 45.3 |
| CC(C)(C)OC(=O)N(CCCN(CCn1c2c(c3ccccc3c1=O)C(=O)c1ccccc1-2)C(=O)OC(C)(C)C)CCn1c2c(c3ccccc3c1=O)C(=O)c1ccccc1-2 | > 50 | > 50 | > 50 | > 50 | > 50 | > 50 | > 50 | > 50 | > 50 | > 50 | > 50 | > 50 | > 50 | 25.9 | > 50 | 14.5 | > 50 µM | > 50 | > 50 | > 50 |
| Cn1cc(C2=C(c3cn(C)c4c(N)cccc34)C(=O)NC2=O)c2ccccc21 | 0.895 | 4.29 | 2.48 | > 25 | 3.43 | > 20.6 | 2.12 | > 25 | 4.34 | > 25 | 0.673 | 3.28 | > 22.1 | 1.03 | 6.85 | 1.34 | > 23.9 µM | 1.56 | 11 | > 20.9 |
